Results on six compounds are retold here after US20040063686A1, “Carboxamide compounds and their use as antagonists of a human 11cby receptor” (priority 2000, published 2004).

T1 sequence (Q99705 whole entry): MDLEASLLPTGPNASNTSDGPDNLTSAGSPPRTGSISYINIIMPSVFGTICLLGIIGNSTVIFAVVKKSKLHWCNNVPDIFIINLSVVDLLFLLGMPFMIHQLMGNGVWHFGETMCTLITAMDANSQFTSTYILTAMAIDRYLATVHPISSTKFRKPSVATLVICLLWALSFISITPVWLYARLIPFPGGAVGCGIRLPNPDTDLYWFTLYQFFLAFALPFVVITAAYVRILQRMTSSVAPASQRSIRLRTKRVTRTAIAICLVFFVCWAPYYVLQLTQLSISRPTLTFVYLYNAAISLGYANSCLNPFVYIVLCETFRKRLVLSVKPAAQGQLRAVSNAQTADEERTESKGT

The first assay has as its target T1, 11CBy receptors (Homo sapiens, UniProt Q99705).
T1 construct: expressed in transfected cells; washed membranes
Description: Radioligand binding assay, [125I]-Melanin Concentrating Hormone competition on membranes from HEK293 cells stably expressing 11CBy receptors. The settings on record: [125I]-MCH 0.22 nM, 45 min at 37° C., pH 7.4, pKi calculated from IC50. The protocol:
The activity of the compounds used in this invention may be assessed by competitive binding assays to 11CBy receptors, as follows:
Radioligand Binding Studies
Radioligand binding assays were carried out on well washed membranes from HEK293 cells stably expressing 11CBy receptors. […] Non-specific binding was defined using 0.1 mM Melanin Concentrating Hormone (obtained from Bachem). The test compounds were added at concentrations between […] and 10 pM in 10 concentration steps. Following incubation, the reaction was stopped by filtration through GF/B filters and washed with 4×1 ml of ice-cold 50 mM Tris buffer. Microscint 20 (Packard) was added to the filters and the radioactivity measured using a Packard TopCount.
Bound cpm in the presence of test compound was expressed as a fraction of the bound cpm in the absence of test compound and plotted against the concentration of compound. From this an IC50 was determined from which the pKi was calculated.
On to “Biphenyl-4-carboxylic acid [4-((R)-diethylamino-hydroxy-propoxy)-3-methoxy-phenyl]-amide [Example G1]”, for which the pKi range is 7.1-7.4.

The same assay, now with this note: [125I]-MCH 0.22 nM, 45 min at 37° C., pH 7.4, pKi calculated from IC50, read-out: pKi range (converted).
With `COc1cc(NC(=O)c2ccc(C3CCCCC3)cc2)ccc1OC[C@@H]1CCCN1C` [Example A48], the Ki is 15.8 to 31.6 nM.

Turning to `COc1cc(NC(=O)c2ccc(-c3ccccc3)cc2Cl)ccc1OCCN(C(C)C)C(C)C` [Example C8], the Ki was 39.8 to 79.4 nM.

On to `CCN(CC)CCOc1ccc(N(C)C(=O)c2ccc(-c3ccccc3)cc2)cc1OC` [Example E9, Biphenyl-4-carboxylic acid [4-(2-diethylamino-ethoxy)-3-methoxy-phenyl]-methyl-amide], for which the Ki was 15.8 to 31.6 nM.

As for `COc1cc(NC(=O)c2ccc(-c3ccccc3)nc2)ccc1OCCN(C(C)C)C(C)C` [Example F4], the Ki is 39.8 to 79.4 nM.

For the compound `COc1cc(NC(=O)c2ccc(C3CCCCC3)cc2)ccc1N1CCN(C)CC1` [Example H1, 4-Cyclohexyl-N-[3-methoxy-4-(4-methyl-piperazin-1-yl)-phenyl]-benzamide], the Ki was 39.8 to 79.4 nM.
